Measured values published in patent US8183234B2, “Tricyclic guanidine derivatives as sodium-proton exchange inhibitors” (Piramal Life Sciences Limited, priority 2004, dated 2012).
Structures can show the parent of a compound that is named as a salt.

Row | melting point [°C] | Structure (SMILES)
1 | 272 to 274 | Cc1cc2c(cc1C(=O)N=C(N)N)S(=O)(=O)Cc1ccccc1O2 (as salt: sulfonic acid salt) [Example 27, N-(7-Methyl-10,10-dioxo-10,11-dihydro-5-oxa-10lambda*6*-thia-dibenzo[a,d]cycloheptene-8-carbonyl)-guanidine, methane sulfonic acid salt]
2 | 232 to 233 | CS(=O)(=O)O.CS(=O)(=O)O.Cc1cc(C(=O)NC(=N)N)cc2c1Oc1c(Cl)cc(NCCNCc3ccccc3)cc1CS2(=O)=O [Example 88, N-[2-(2-Benzylamino-ethylamino)-4-chloro-6-methyl-10,10-dioxo-10,11-dihydro-5-oxa-10lambda*6*-thia-dibenzo[a,d]cycloheptene-8-carbonyl]-guanidine dimesylate]
3 | 276 | CS(=O)(=O)O.CS(=O)(=O)O.CS(=O)(=O)O.Cc1cc(C(=O)NC(=N)N)cc2c1Oc1c(Cl)cc(N(CCN3CCCCC3)C(=O)C3CC3)cc1CS2(=O)=O [Example 95, Cyclopropanecarboxylic acid (4-chloro-8-guanidinocarbonyl-6-methyl-10,10-dioxo-10,11-dihydro-5-oxa-10lambda*6*-thia-dibenzo[a,d]cycloheptene-2-yl)-(2-piperidin-1-yl-ethyl)-amide trimesylate]
4 | 248 to 250 | CCN(CCN1CCOCC1)c1cc(Cl)c2c(c1)CS(=O)(=O)c1cc(C(=O)NC(=N)N)cc(C)c1O2.CS(=O)(=O)O.CS(=O)(=O)O [Example 67, N-{4-Chloro-2-[ethyl-(2-morpholin-4-yl-ethyl)-amino]-6-methyl-10,10-dioxo-10,11-dihydro-5-oxa-10lambda*6*-thia-dibenzo[a,d]cycloheptene-8-carbonyl}-guanidine dimesylate]
5 | 187 to 189 | CS(=O)(=O)O.CS(=O)(=O)O.Cc1cc(C(=O)NC(=N)N)cc2c1Oc1c(Cl)cc(S(=O)(=O)N3CCN(C)CC3)cc1CS2(=O)=O [Example 54, N-[4-Chloro-6-methyl-2-(4-methyl-piperazine-1-sulfonyl)-10,10-dioxo-10,11-dihydro-5-oxa-10lambda*6*-thia-dibenzo[a,d]cyclohepten-8-carbonyl]-guanidine dimesylate]
6 | 150 to 152 | CS(=O)(=O)O.CS(=O)(=O)O.CS(=O)(=O)O.Cc1cc(C(=O)NC(=N)N)cc2c1Oc1c(Cl)cc(N(CCN3CCCC3)C(=O)CNC3CC3)cc1CS2(=O)=O [Example 150, N-(4-Chloro-8-guanidinocarbonyl-6-methyl-10,10-dioxo-10,11-dihydro-5-oxa-10-lambda*6*-thia-dibenzo[a,d]cycloheptene-2-yl)-2-cyclopropylamino-N-(2-pyrrolidin-1-yl-ethyl)-acetamide trimesylate]
7 | 188 to 190 | CNCC(=O)Nc1cc(Cl)c2c(c1)CS(=O)(=O)c1cc(C(=O)NC(=N)N)cc(C)c1O2.CS(=O)(=O)O.CS(=O)(=O)O [Example 146, N-(4-Chloro-8-guanidinocarbonyl-6-methyl-10,10-dioxo-10,11-dihydro-5-oxa-10lambda*6*-thia-dibenzo[a,d]cyclohepten-2-yl)-2-methylamino-acetamide dimesylate]
8 | 243 to 245 | CS(=O)(=O)O.CS(=O)(=O)O.CS(=O)(=O)O.Cc1cc(C(=O)NC(=N)N)cc2c1Oc1c(Cl)cc(N3CCN(CCN(C)C)CC3)cc1CS2(=O)=O [Example 119, N-{4-Chloro-2-[4-(2-dimethylamino-ethyl)-piperazin-1-yl]-6-methyl-10,10-dioxo-10,11-dihydro-5-oxa-10lambda*6*-thia-dibenzo[a,d]cycloheptene-8-carbonyl}-guanidine trimesylate]
9 | 220 to 222 | CC(C)c1cccc2c1Oc1ccc(C(=O)NC(=N)N)cc1S(=O)(=O)C2.CS(=O)(=O)O [Example 8, N-(4-Isopropyl-10,10-dioxo-10,11-dihydro-5-oxa-10lambda*6*-thia-dibenzo[a,d]cycloheptene-8-carbonyl)-guanidine, methanesulfonic acid salt]
10 | 178 to 180 | CS(=O)(=O)O.CS(=O)(=O)O.Cc1cc(C(=O)NC(=N)N)cc2c1Oc1c(Cl)cc(NC(=O)CN3CCCCC3)cc1CS2(=O)=O [Example 134, N-(4-Chloro-8-guanidinocarbonyl-6-methyl-10,10-dioxo-10,11-dihydro-5-oxa-10lambda*6*-thia-dibenzo[a,d]cycloheptene-2-yl)-2-piperidin-1-yl-acetamide dimesylate]
11 | 195 to 196 | Cc1cc(C(=O)N=C(N)N)cc2c1Oc1c(Cl)cc(N3CCN(C4CC4)CC3=O)cc1CS2(=O)=O (as salt: mesylate) [Example 58, N-[4-Chloro-2-(4-cyclopropyl-2-oxo-piperazin-1-yl)-6-methyl-10,10-dioxo-10,11-dihydro-5-oxa-10lambda*6*-thia-dibenzo[a,d]cycloheptene-8-carbonyl]-guanidine dimesylate]
12 | 224 to 225 | COc1ccccc1CNCCNc1cc(Cl)c2c(c1)CS(=O)(=O)c1cc(C(=O)NC(=N)N)cc(C)c1O2.CS(=O)(=O)O.CS(=O)(=O)O [Example 90, N-{4-Chloro-2-[2-(2-methoxy-benzylamino)-ethylamino]-6-methyl-10,10-dioxo-10,11-dihydro-5-oxa-10lambda*6*-thia-dibenzo[a,d]cycloheptene-8-carbonyl}-guanidine dimesylate]
13 | 178 to 179 | CS(=O)(=O)O.CS(=O)(=O)O.Cc1cc(C(=O)NC(=N)N)cc2c1Oc1c(Cl)cc(N(CCN3CCCC3)C(=O)C3CC3)cc1CS2(=O)=O [Example 76, Cyclopropanecarboxylic acid (4-chloro-8-guanidinocarbonyl-6-methyl-10,10-dioxo-10,11-dihydro-5-oxa-10lambda*6*-thia-dibenzo[a,d]cyclohepten-2-yl)-(2-pyrrolidin-1-yl-ethyl)-amide dimesylate]
14 | 252 to 253 | Cc1cc(C(=O)N=C(N)N)cc2c1Oc1c(cccc1C(C)C)CS2(=O)=O (as salt: sulfonic acid salt) [Example 31, N-(4-Isopropyl-6-methyl-10,10-dioxo-10,11-dihydro-5-oxa-10lambda*6*-thia-dibenzo[a,d]cycloheptene-8-carbonyl)-guanidine, methane sulfonic acid salt]
15 | 190 to 192 | CS(=O)(=O)O.CS(=O)(=O)O.Cc1cc(C(=O)NC(=N)N)cc2c1Oc1c(Cl)cc(NC(=O)CN3CCCC3)cc1CS2(=O)=O [Example 147, N-(4-Chloro-8-guanidinocarbonyl-6-methyl-10,10-dioxo-10,11-dihydro-5-oxa-10lambda*6*-thia-dibenzo[a,d]-cyclohepten-2-yl)-2-pyrrolidine-1-yl-acetamide dimesylate]
16 | 190 to 192 | CS(=O)(=O)O.CS(=O)(=O)O.CS(=O)(=O)O.Cc1cc(C(=O)NC(=N)N)cc2c1Oc1c(Cl)cc(N3CCN(Cc4cccnc4)CC3)cc1CS2(=O)=O [Example 128, N-[4-Chloro-6-methyl-10,10-dioxo-2-(4-pyridin-3-ylmethyl-piperazin-1-yl)-10,11-dihydro-5-oxa-10lambda*6*-thia-dibenzo[a,d]cycloheptene-8-carbonyl]-guanidine trimesylate]
17 | 231 to 232 | CS(=O)(=O)O.N=C(N)NC(=O)c1ccc2c(c1)S(=O)(=O)Cc1c(F)cccc1O2 [Example 6, N-(1-Fluoro-10,10-dioxo-10,11-dihydro-5-oxa-10lambda*6*-thia-dibenzo[a,d]cycloheptene-8-carbonyl)-guanidine, methanesulfonic acid salt]
18 | 188 to 190 | CS(=O)(=O)O.CS(=O)(=O)O.Cc1cc(C(=O)NC(=N)N)cc2c1Oc1c(Cl)cc(NC(=O)CNC3CC3)cc1CS2(=O)=O [Example 138, N-(4-Chloro-8-guanidinocarbonyl-6-methyl-10,10-dioxo-10,11-dihydro-5-oxa-10lambda*6*-thia-dibenzo[a,d]cyclohepten-2-yl)-2-cyclopropylamino-acetamide dimesylate]
19 | 218 to 220 | CS(=O)(=O)O.CS(=O)(=O)O.CS(=O)(=O)O.Cc1cc(C(=O)NC(=N)N)cc2c1Oc1c(Cl)cc(NCCN3CCN(CCO)CC3)cc1CS2(=O)=O [Example 70, N-(4-Chloro-2-{2-[4-(2-hydroxy-ethyl)-piperazin-1-yl]-ethylamino}-6-methyl-10,10-dioxo-10,11-dihydro-5-oxa-10lambda*6*-thia-dibenzo{a,d}cycloheptene-8-carbonyl)-guanidine trimesylate]
20 | 292 to 293 | CS(=O)(=O)O.Cc1cc(C(=O)NC(=N)N)cc2c1Oc1c(Cl)cc(S(=O)(=O)N3CCOCC3)cc1CS2(=O)=O [Example 55, N-[4-chloro-6-methyl-2-(morpholine-4-sulfonyl)-10,10-dioxo-10,11-dihydro-5-oxa-10 lambda*6*-thia-dibenzo[a,d]cycloheptene-8-carbonyl]-guanidine methane sulfonic acid salt]
